Experimental data: patent US20250339547A1, “MET BCL-XL INHIBITOR ANTIBODY-DRUG CONJUGATES AND METHODS OF USE THEREOF” (Novartis AG, priority 2022, published 2025)

Tests used:
EBC-1 [1] = assay: In vitro activity in EBC-1 cell line (CTG 120h), Example 6; type: cell-based; conditions: Homo sapiens, EBC-1, 120 h, EBC-1, CTG 120 h
Procedure: (§1) Cell lines were cultured in the media described above at 37° C. in a humidified atmosphere containing 5% CO2. Cells were seeded in 96 well clear bottom plates (96 well clear-bottom, white, Corning reference 3903) and exposed to the mAbs or ADCs for 120h (serially diluted; 9 concentrations each, triplicates). Effects of mAbs or ADCs on cell viability were assessed after 5 days of incubation at 37° C./5% CO2 by quantification of cellular ATP levels using CellTiter-Glo reagent (Promega Ref: G7571) at 75 μL reagent/well. All the conditions were tested in triplicates. Luminescence was quantified on a multipurpose plate reader. IC50s were calculated using standard four-parametric curve fitting. IC50 is defined as the compound concentration at which the CTG signal is reduced to 50% of that measured for the control. Two independent experiments were performed (N1 and N2). IC50 data of each experiment and the arithmetic mean is shown in Table 14 for all the antibodies and ADCs tested.

SNU-5 [2] = assay: In vitro activity in SNU-5 cell line (CTG 120h), Example 6; type: cell-based; conditions: Homo sapiens, SNU-5, 120 h, SNU-5, CTG 120 h
Procedure: as §1

LOUNH-91 = assay: In vitro activity in LOUNH-91 cell line (CTG 120h), Example 6; type: cell-based; conditions: LOU-NH91, 120 h, LOUNH91, CTG 120 h
Procedure: as §1

EBC-1 [3] = assay: In vitro activity in EBC-1 cell line (CTG 120h), Example 12; type: cell-based; conditions: Homo sapiens, EBC-1, 120 h, EBC1, CTG 120 h
Procedure: as §1, with “EBC-1 and SNU-5 cell lines” for “Cell lines”, “CO2. The cells” for “CO2. Cells”, “N2).” for “N2). IC50 data of each experiment and the arithmetic mean is shown in Table 14 for all the antibodies and ADCs tested.”
(§2) Plating Conditions: EBC-1: 75 μL/well of 60000 cells/mL for 120h in 96-well plate SNU-5: 75 μL/well of 60000 cells/mL for 120h in 96-well plate H1650 (ATOC): 75 μL/well of 125000 cells/mL for 120h in 96 microwell round bottom plates

SNU-5 [4] = assay: In vitro activity in SNU-5 cell line (CTG 120h), Example 12; type: cell-based; conditions: Homo sapiens, SNU-5, 120 h, SNU5, CTG 120 h
Procedure: EBC-1 and SNU-5 cell lines were cultured in the media described above at 37° C. in a humidified atmosphere containing 5% CO2. […] Effects of mAbs or ADCs on cell viability were assessed after 5 days of incubation at 37° C./5% CO2 by quantification of cellular ATP levels using CellTiter-Glo reagent (Promega Ref: G7571) at 75 μL reagent/well. All the conditions were tested in triplicates. Luminescence was quantified on a multipurpose plate reader. IC50s were calculated using standard four-parametric curve fitting. […] Two independent experiments were performed (N1 and N2).

H1650 cells = assay: In vitro activity in H1650 cell line (3D, CTG 120h), Example 12; type: cell-based; conditions: Homo sapiens, NCI-H1650, 120 h, H1650 3D
Procedure: H1650 cells were cultivated in RPMI supplemented with 10% heat inactivated fetal bovine serum, penicillin (100 IU/ml), streptomycin (100 μg/ml) and L-glutamine (2 mM). Cells were cultured at 37° C. in a humidified atmosphere containing 5% CO2. Cells were seeded in 96 microwell round bottom plates (96 microwell low attachment plates, Costar reference 7007; 75 μL/well of 125000 cells/mL) and exposed to the mAbs or ADCs for 120h (serially diluted; 9 concentrations each, duplicates). Effects of mAbs or ADCs on cell viability were assessed after 5 days of incubation at 37° C./5% CO2 by quantification of cellular ATP levels using CellTiter-Glo reagent (Promega Ref: G7571) at 75 μL reagent/well. All the conditions were tested in duplicates. Luminescence was quantified on a multipurpose plate reader. IC50s were calculated using standard four-parametric curve fitting. IC50 is defined as the compound concentration at which the CTG signal is reduced to 50% of that measured for the control. Two independent experiments were performed (N1 and N2).
as §2

lung cancer cell lines = assay: Lung cancer cell line panel of Example 7, statements in text (CTG 120h); type: cell-based; conditions: lung cancer cell lines of Table 15, single agents
Procedure: Cell lines were cultured in the media described above at 37° C. in a humidified atmosphere containing 5% CO2. Cells were seeded in 96 well clear bottom plates (96 well clear-bottom, white, Corning reference 3903) and exposed to the mAbs, mAbs mixture, ADCs or ADCs mixture as single agents or in 1:1 combination with Paclitaxel. When in 1:1 combination, both the combining partner (Paclitaxel) and the mAb, mAb mixture, ADC or ADC mixture were serially diluted (9 concentrations each, triplicates). Effect on cell viability was assessed after 5 days of incubation at 37° C./5% CO2 by quantification of cellular ATP levels using CellTiter-Glo reagent (Promega Ref: G7571) at 75 μL reagent/well. All the conditions were tested in triplicates. Luminescence was quantified on a multipurpose plate reader. IC50s were calculated using standard four-parametric curve fitting. IC50 is defined as the compound concentration at which the CTG signal is reduced to 50% of that measured for the control. Two independent experiments were performed (N1 and N2).

H1650 xenografts = assay: In vivo efficacy alone or with paclitaxel in Met non amplified NCI-H1650 lung adenocarcinoma human cell model, Example 15; design: species or system SCID mice; conditions: paclitaxel 12.5 mg/kg IV at day 1, 8 and 15, single agent
Procedure: Below are the procedures for determining the in vivo therapeutic effect of a Bcl-xL ADC targeting the Met protein as a single agent or in combination with paclitaxel. Their activities were compared to the corresponding naked anti-Met mAb or Ab G-L42C-P25 (non-targeting ADC) formulated in Phosphate-Buffered Saline (PBS) in a Met non amplified NCI-H1650 lung adenocarcinoma human cell line after intravenous (IV) administration.
NCI-H1650 cells, obtained from ATCC, were cultured in RPMI supplemented with 10% SBS, 1% Penicillin-Streptomycin and 1% HEPES. Cells were resuspended in 50% Matrigel® (Corning®) and 0.1 ml containing 10×10^6 cells were subcutaneously inoculated into the right flank of female SCID mice, provided by Charles River.
Mice body weight was monitored 3 times a week and tumor size measured using electronic calipers. Tumor volume was estimated by measuring the minimum and maximum tumor diameters using the formula: (minimum diameter)2(maximum diameter)/2.
With DTV (Delta Tumor Volume) at Dx, calculated being TV at Dx−TV at Randomization.
Mice were sacrificed at the first measurement for which tumor volume exceeded 2000 mm3 or at the first signs of animal health deterioration. […] SCID mice were maintained according to institutional guidelines.

[5] = tested on: pancreatic cancer cell lines; assay: Pancreatic cancer cell line panel of Example 10 (CTG 120h); type: cell-based; conditions: pancreatic cancer cell lines of Table 16, single agents
Procedure: Cell lines were cultured in the media described above at 37° C. in a humidified atmosphere containing 5% CO2. […] When in 1:1 combination, both the combining partner (Paclitaxel, Trametinib or Gemcitabine) and the mAb or ADC were serially diluted (9 concentrations each, triplicates). Effect on cell viability was assessed after 5 days of incubation at 37° C./5% CO2 by quantification of cellular ATP levels using CellTiter-Glo reagent (Promega Ref: G7571) at 75 μL reagent/well. All the conditions were tested in triplicates. Luminescence was quantified on a multipurpose plate reader. IC50s were calculated using standard four-parametric curve fitting. […] Two independent experiments were performed (N1 and N2).

Work on `Cc1c(Nc2nc3ccccc3s2)nnc2c1CCCN2c1ccc(-c2cnn(C[C@]34C[C@]5(C)C[C@](C)(C3)C[C@@](OCCNCCCO)(C5)C4)c2C)c(C(=O)O)n1` [P25, 6-[3-(1,3-benzothiazol-2-ylamino)-4-methyl-6,7-dihydro-5H-pyrido[2,3-c]pyridazin-8-yl]-3-[1-[[3-[2-(3-hydroxypropylamino)ethoxy]-5,7-dimethyl-1-adamantyl]methyl]-5-methyl-pyrazol-4-yl]pyridine-2-carboxylic acid] yielded an IC50 (EBC-1 [1]; mean) of 0.0433 µM, an IC50 (EBC-1 [1]; n = 1) of 0.0208 µM and an IC50 (EBC-1 [1]; n = 2) of 0.0659 µM. For the same compound, the IC50 (SNU-5 [2]; mean) was 10.7 µM, the IC50 (SNU-5 [2]; n = 1) was 10.6 µM and the IC50 (SNU-5 [2]; n = 2) was 10.8 µM. For the same compound, the IC50 (LOUNH-91; mean) was 0.00707 µM, the IC50 (LOUNH-91; n = 1) was 0.00643 µM and the IC50 (LOUNH-91; n = 2) was 0.00771 µM. It also gave an IC50 (EBC-1 [3]; Mean) of 0.0126 µM, an IC50 (EBC-1 [3]; N1) of 0.0128 µM and an IC50 (EBC-1 [3]; N2) of 0.0124 µM. The IC50 (SNU-5 [4]; Mean) was 5.51 µM, the IC50 (SNU-5 [4]; N1) was 5.51 µM and the IC50 (SNU-5 [4]; N2) was > 30 µM. The IC50 (H1650 cells; N1) was 0.00828 µM, the IC50 (H1650 cells; N2) was 0.0059 µM and the IC50 (H1650 cells; mean) was 0.00709 µM.
In the case of `CC(=O)O[C@H]1C(=O)[C@@]2(C)[C@H]([C@H](OC(=O)c3ccccc3)[C@]3(O)C[C@H](OC(=O)[C@H](O)[C@@H](NC(=O)c4ccccc4)c4ccccc4)C(C)=C1C3(C)C)[C@]1(OC(C)=O)CO[C@@H]1C[C@@H]2O` [Paclitaxel, paclitaxel], the “effect on the viability” value (lung cancer cell lines) is reported as “induced dose dependent decrease in cell viability (with measurable IC50) in all cell lines except NCI-H1838”, the “TGI % (d 18)” value (H1650 xenografts) is reported as −14.4% and the “effect on the viability” value [5] is reported as “induced dose dependent decrease in cell viability with measurable IC50 for most of the cell lines”.
